Experimental data from ChEMBL document CHEMBL1201862, “PubChem BioAssay data set” (2004).
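Exposure lasted 48 hours, with cells grown in 96-well plates and compounds tested at five concentrations. GI50: concentration for 50% inhibition of growth.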 Calls of active or inactive are those of the source. Rule as the data show it: active = GI50 up to about 1.1 µM and inactive = higher.

Assays:
Assay in all cases: DTP human tumour cell line panel, 48 h
[1] = test system: HT-29
[2] = test system: HCT-15
[3] = test system: OVCAR-8
[4] = test system: NCI-H460
[5] = test system: LOX IMVI
[6] = test system: CCRF-CEM
[7] = test system: HOP-62
[8] = test system: MDA-N
[9] = test system: SW-620
[10] = test system: OVCAR-5
[11] = test system: UACC-257
[12] = test system: UACC-62
[13] = test system: HCC 2998
[14] = test system: ACHN
[15] = test system: UO-31
[16] = test system: TK-10
[17] = test system: NCI-H522
[18] = test system: MDA-MB-435
[19] = test system: MDA-MB-231
[20] = test system: SF-539

`COC(=O)C(CBr)CBr` was tested, and the GI50 [1] was 4.1 µM (inactive), the GI50 [2] was 1.71 µM and the GI50 [3] was 3.41 µM (inactive). The GI50 [4] was 14 µM (inactive), the GI50 [5] was 2.6 µM (inactive) and the GI50 [6] was 0.762 µM (active). The GI50 [7] was 22.5 µM (inactive), the GI50 [8] was 3.48 µM (inactive) and the GI50 [9] was 1.27 µM (inactive). For the same compound, the GI50 [10] was 16.8 µM (inactive), the GI50 [11] was 5.58 µM (inactive) and the GI50 [12] was 9.42 µM (inactive). The GI50 [13] was 4.49 µM (inactive), the GI50 [14] was 3.7 µM (inactive) and the GI50 [15] was 5.65 µM (inactive). The GI50 [16] was 4.79 µM (inactive), the GI50 [17] was 2.14 µM (inactive) and the GI50 [18] was 3.33 µM (inactive). The GI50 [19] was 2.12 µM (inactive) and the GI50 [20] was 5.96 µM (inactive).

With `CC(=O)c1[nH]c(NC(C)C)c(C(=S)Nc2ccccc2)c1N` the GI50 [1] was 38.8 µM (inactive), the GI50 [2] was 26.9 µM and the GI50 [3] was 28.4 µM (inactive). The GI50 [4] was 31.8 µM (inactive), the GI50 [5] was 19.1 µM (inactive) and the GI50 [6] was 25.5 µM (inactive). For the same compound, the GI50 [7] was 38 µM (inactive), the GI50 [8] was 22.1 µM (inactive) and the GI50 [9] was 54.1 µM (inactive). For the same compound, the GI50 [10] was 61.8 µM (inactive), the GI50 [11] was 24 µM (inactive) and the GI50 [12] was 23.6 µM (inactive). The GI50 [13] was 28.2 µM (inactive), the GI50 [14] was 33.3 µM (inactive) and the GI50 [15] was 20.5 µM (inactive). The GI50 [16] was 40.8 µM (inactive), the GI50 [17] was 16.6 µM (inactive) and the GI50 [18] was 21.7 µM (inactive). For the same compound, the GI50 [19] was 22.3 µM (inactive) and the GI50 [20] was > 100 µM (inactive).

In the case of `O=[N+]([O-])/C(Cl)=C(\NCCO)C(Cl)=C(Cl)Cl`, the GI50 [1] is reported as 57 µM (inactive), the GI50 [2] is reported as 30.8 µM and the GI50 [3] is reported as 52.8 µM (inactive). For the same compound, the GI50 [4] was > 100 µM (inactive), the GI50 [5] was 70 µM (inactive) and the GI50 [6] was 16.9 µM (inactive). The GI50 [7] was > 100 µM (inactive), the GI50 [8] was 55.5 µM (inactive) and the GI50 [9] was 41.3 µM (inactive). For the same compound, the GI50 [10] was > 100 µM (inactive), the GI50 [11] was > 100 µM (inactive) and the GI50 [12] was 45.2 µM (inactive). The GI50 [13] was > 100 µM (inactive), the GI50 [14] was 89.5 µM (inactive) and the GI50 [15] was > 74.5 µM (inactive). The GI50 [16] was > 89.3 µM (inactive), the GI50 [17] was 21.7 µM (inactive) and the GI50 [18] was 55.8 µM (inactive). For the same compound, the GI50 [19] was > 64.9 µM (inactive) and the GI50 [20] was > 100 µM (inactive).

`Cc1cccc(NC(=S)N/N=C(/c2ccccc2)c2ccccn2)c1` was tested, and the GI50 [1] was 0.0285 µM (active), the GI50 [2] was 0.0255 µM and the GI50 [3] was 0.038 µM (active). The GI50 [4] was 0.159 µM (active), the GI50 [5] was 0.0224 µM (active) and the GI50 [6] was < 0.01 µM (active). For the same compound, the GI50 [7] was 1.29 µM (inactive), the GI50 [8] was 0.46 µM (active) and the GI50 [9] was < 0.019 µM (active). The GI50 [10] was 0.0266 µM (active), the GI50 [11] was < 0.0162 µM (active) and the GI50 [12] was 0.267 µM (active). The GI50 [13] was 2.84 µM (inactive), the GI50 [14] was 0.044 µM (active) and the GI50 [15] was 0.385 µM (active). The GI50 [16] was 0.117 µM (active), the GI50 [17] was 1.09 µM (active) and the GI50 [18] was 0.574 µM (active). The GI50 [19] was 0.0378 µM (active) and the GI50 [20] was 1.31 µM (inactive).

With `C=C(C)[C@@H]1CC[C@]2(C)CC[C@]3(C)[C@H](CC[C@@H]4[C@@]5(C)CC[C@H](OC(=O)c6ccccc6)C(C)(C)[C@@H]5CC[C@]43C)[C@@H]12` the GI50 [1] was > 100 µM (inactive), the GI50 [2] was greater than 100 µM and the GI50 [3] was > 100 µM (inactive). The GI50 [4] was > 100 µM (inactive), the GI50 [5] was > 100 µM (inactive) and the GI50 [6] was > 100 µM (inactive). The GI50 [7] was > 100 µM (inactive), the GI50 [8] was > 100 µM (inactive) and the GI50 [9] was > 100 µM (inactive). For the same compound, the GI50 [10] was > 100 µM (inactive), the GI50 [11] was > 100 µM (inactive) and the GI50 [12] was > 100 µM (inactive). For the same compound, the GI50 [13] was > 100 µM (inactive), the GI50 [14] was > 100 µM (inactive) and the GI50 [15] was > 100 µM (inactive). The GI50 [16] was > 100 µM (inactive), the GI50 [17] was > 100 µM (inactive) and the GI50 [18] was > 100 µM (inactive). For the same compound, the GI50 [19] was > 100 µM (inactive) and the GI50 [20] was > 100 µM (inactive).

With `N#CC(C#N)=C(N)/C(C#N)=C/c1cc(O)c(O)c(Br)c1` the GI50 [1] was 37.4 µM (inactive), the GI50 [2] was 48.8 µM and the GI50 [3] was 48.1 µM (inactive). The GI50 [4] was 38.1 µM (inactive), the GI50 [5] was 42 µM (inactive) and the GI50 [6] was 28.2 µM (inactive). For the same compound, the GI50 [7] was > 69.7 µM (inactive), the GI50 [8] was 99.5 µM (inactive) and the GI50 [9] was 51.6 µM (inactive). For the same compound, the GI50 [10] was > 43.6 µM (inactive), the GI50 [11] was 72.4 µM (inactive) and the GI50 [12] was 39.4 µM (inactive). For the same compound, the GI50 [13] was > 74 µM (inactive), the GI50 [14] was 77.1 µM (inactive) and the GI50 [15] was 42.4 µM (inactive). For the same compound, the GI50 [16] was > 100 µM (inactive), the GI50 [17] was 40.5 µM (inactive) and the GI50 [18] was 78.5 µM (inactive). For the same compound, the GI50 [19] was 88.5 µM (inactive) and the GI50 [20] was 44.1 µM (inactive).
